According to US11040028B2, “Penicinotam derivative, preparation method and use thereof” (OCEAN UNIVERSITY OF CHINA, priority 2017, dated 2021):
Read-outs that look alike come from different tables or passages of the source.

Key:
Type in all cases: cell-based
BHK-21 cells = assay: Anti-fibrosis activity test: inhibition of BHK-21 cell proliferation (CCK-8); conditions: Mesocricetus auratus, BHK-21, 48 h
Summary of the method: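 Proliferation of BHK-21 cells is measured by CCK-8 at 450 nm following 48 h compound exposure at several concentrations. Inhibition is expressed relative to blank control and IC50 is computed from it.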

[1] = tested on: human lung fibroblasts HFL1; assay: Anti-fibrosis activity test: inhibition of proliferation of human lung fibroblasts HFL1 (CCK-8); conditions: Homo sapiens, HFL1, 48 h
Summary of the method: (§1)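 Proliferation read by CCK-8 (2 h, A450) after 48 h compound treatment of cells plated at 2×10^4 cells/mL and allowed 24 h attachment, triplicate per concentration. Inhibition rate derived from absorbance relative to untreated blank, with IC50 fitted; pirfenidone as positive control.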

[2] = tested on: human hepatic stellate cells LX-2; assay: Anti-fibrosis activity test: inhibition of proliferation of human hepatic stellate cells LX-2 (CCK-8); conditions: Homo sapiens, 48 h
Summary of the method: as §1

[3] = tested on: human fibrosarcoma cells HT-1080; assay: Anti-fibrosis activity test: inhibition of proliferation of human fibrosarcoma cells HT-1080 (CCK-8)
Summary of the method: as §1

[4] = tested on: human dermal fibroblasts CCC-ESF-1; assay: Anti-fibrosis activity test: inhibition of proliferation of human dermal fibroblasts CCC-ESF-1 (CCK-8); conditions: Fibroblast
Summary of the method: as §1

[5] = tested on: human embryonic lung fibroblast IMR-90; assay: Anti-fibrosis activity test: inhibition of proliferation of human embryonic lung fibroblast IMR-90 (CCK-8)
Summary of the method: as §1

[6] = tested on: cardiac fibroblast RAT-iCell-C002; assay: Anti-fibrosis activity test: inhibition of proliferation of cardiac fibroblast RAT-iCell-C002 (CCK-8); conditions: Cardiac fibroblast, 48 h
Summary of the method: as §1

[7] = tested on: mouse macrophages (RAW264.7); assay: Lipopolysaccharide-induced NO secretion in macrophages (Griess); conditions: RAW264.7, LPS 1 μg/ml, a/b isomers given as first/second symbol, read-out: IC50 (μM), inhibition of lipopolysaccharide-induced NO secretion in macrophages
Summary of the method: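 Percent inhibition of NO release was measured by Griess absorbance at 548 nm in supernatants. Cells were mouse RAW264.7 macrophages in 10% FBS DMEM, treated with graded compound concentrations and activated by LPS (1 μg/ml) for 24 h.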

[8] = CCK-8, 48 hours after administration
[9] = human lung fibroblasts HFL1, CCK-8, 48 hours
[10] = human hepatic stellate cells LX-2, CCK-8, 48 hours
[11] = Homo sapiens, HT-1080, 48 h, human fibrosarcoma cells HT-1080, CCK-8, 48 hours
[12] = human dermal fibroblasts CCC-ESF-1, CCK-8, 48 hours
[13] = human embryonic lung fibroblast IMR-90, CCK-8, 48 hours
[14] = cardiac fibroblast RAT-iCell-C002, CCK-8, 48 hours
[15] = Homo sapiens, HT-1080, 48 h, HT-1080 cells, 48 h, CCK-8
[16] = Homo sapiens, CCC-ESF-1 cells, 48 h, CCK-8
[17] = Homo sapiens, IMR-90 cells, 48 h, CCK-8

IC50 [3, 11] [mM]	IC50 ([7]; Mus musculus, RAW264.7, 24 h) [µM]	IC50 ([3]; human fibrosarcoma cells HT-1080, CCK-8, 48 hours) [mM]	IC50 ([7]; 24 hours) [µM]	IC50 [3, 15] [mM]	SMILES	IC50 (BHK-21 cells; [8]) [mM]	IC50 [1, 9] [mM]	IC50 [2, 10] [mM]	IC50 [4, 12] [mM]	IC50 [5, 13] [mM]	IC50 [6, 14] [mM]	IC50 (BHK-21 cells; 48 h, CCK-8) [mM]	IC50 ([1]; HFL1 cells, 48 h, CCK-8) [mM]	IC50 ([2]; LX-2, 48 h, LX-2 cells, CCK-8) [mM]	IC50 [4, 16] [mM]	IC50 [5, 17] [mM]	IC50 ([6]; RAT-iCell-C002 cells, CCK-8) [mM]
0.05 to 5	10 to 50	–	–	–	O=C1c2c(nc3c(Cl)cccc3c2OCc2ccccc2F)-c2cccn21 [Compound 460b, 5-chloro-9-((2-fluorobenzyl)oxy)-10H-pyrrolizino[1,2-b]quinolin-10-one]	0.05 to 5	0.05 to 5	0.05 to 5	0.05 to 5	0.05 to 5	0.05 to 5	–	–	–	–	–	–
–	–	5 to 20	10 to 50	–	N#Cc1c(N2CCNCC2)ccc2c(=O)c3c(n(Cc4ccc(F)cc4)c12)-c1cccn1C3=O [Compound 482a, 4-(4-Fluorobenzyl)-9,10-dioxo-6-(piperazin-1-yl)-4,10-dihydro-9H-pyrrolizino[1,2-b]quinoline-5-carbonitrile]	0.05 to 5	0.05 to 5	0.05 to 5	0.05 to 5	0.05 to 5	0.05 to 5	–	–	–	–	–	–
0.05 to 5	1 to 10	–	–	–	N#Cc1cccc2c(OCc3ccc(F)cc3)c3c(nc12)-c1cccn1C3=O [Compound 449b, 9-((4-fluorobenzyl)oxy)-10-oxo-10H-pyrrolizino[1,2-b]quinoline-5-carbonitrile]	0.05 to 5	0.05 to 5	0.05 to 5	0.05 to 5	0.05 to 5	0.05 to 5	–	–	–	–	–	–
–	1 to 10	–	–	0.05 to 5	O=C1c2c(c(=O)c3ccccc3n2CCCCN2CCCCC2)-c2cccn21 [Compound 788a, 6-(4-(Piperidin-1-yl)butyl)-5H-pyrrolizino[2,1-b]quinoline-5,11(6H)-dione]	–	–	–	–	–	–	0.05 to 5	0.05 to 5	0.05 to 5	0.05 to 5	0.05 to 5	0.05 to 5
–	0.1 to 1	–	–	0.05 to 5	O=C1c2c(c(=O)c3ccccc3n2CCCN2CCNCC2)-c2cccn21 [Compound 793a, 6-(3-(Piperazin-1-yl)propyl)-5H-pyrrolizino[2,1-b]quinoline-5,11(6H)-dione]	–	–	–	–	–	–	0.05 to 5	0.05 to 5	0.05 to 5	0.05 to 5	0.05 to 5	0.05 to 5
0.05 to 5	10 to 50	–	–	–	O=C1c2c(n(Cc3ccc(Cl)cc3)c3c(F)c(N4CCNCC4)ccc3c2=O)-c2cccn21 [Compound 484a, 4-(4-Chlorobenzyl)-5-fluoro-6-(piperazin-1-yl)-9H-pyrrolizino[1,2-b]quinoline-9,10(4H)-dione]	0.05 to 5	0.05 to 5	0.05 to 5	0.05 to 5	0.05 to 5	0.05 to 5	–	–	–	–	–	–
0.05 to 5	0.1 to 1	–	–	–	C=CCOc1c2c(nc3ccc(F)cc13)-c1cccn1C2=O [Compound 109b, 9-(allyloxy)-7-fluoro-10H-pyrrolizino[1,2-b]quinolin-10-one]	0.05 to 5	0.05 to 5	0.05 to 5	0.05 to 5	0.05 to 5	0.05 to 5	–	–	–	–	–	–
0.05 to 5	0.1 to 1	–	–	–	O=C1c2c(n(Cc3ccc(Cl)cc3)c3cccc(C(F)(F)F)c3c2=O)-c2cccn21 [Compound 465a, 4-(4-Chlorobenzyl)-8-(trifluoromethyl)-9H-pyrrolizino[1,2-b]quinoline-9,10(4H)-dione]	0.05 to 5	0.05 to 5	0.05 to 5	0.05 to 5	0.05 to 5	0.05 to 5	–	–	–	–	–	–
0.05 to 5	10 to 50	–	–	–	O=C1c2c(n(Cc3ccccc3F)c3cccc(Cl)c3c2=O)-c2cccn21 [Compound 480a, 8-Chloro-4-(2-fluorobenzyl)-9H-pyrrolizino[1,2-b]quinoline-9,10(4H)-dione]	0.05 to 5	0.05 to 5	0.05 to 5	0.05 to 5	0.05 to 5	< 0.05	–	–	–	–	–	–
0.05 to 5	1 to 10	–	–	–	O=C1c2c(n(C3CC3)c3ccc(F)cc3c2=O)-c2cccn21 [Compound 144a, 4-Cyclopropyl-7-fluoro-9H-pyrrolizino[1,2-b]quinoline-9,10(4H)-dione]	0.05 to 5	0.05 to 5	< 0.05	0.05 to 5	0.05 to 5	0.05 to 5	–	–	–	–	–	–
0.05 to 5	0.1 to 1	–	–	–	O=C1c2c(n(Cc3ccc(Cl)cc3)c3c(F)cccc3c2=O)-c2cccn21 [Compound 453a, 4-(4-Chlorobenzyl)-5-fluoro-9H-pyrrolizino[1,2-b]quinoline-9,10(4H)-dione]	0.05 to 5	0.05 to 5	0.05 to 5	0.05 to 5	0.05 to 5	0.05 to 5	–	–	–	–	–	–
0.05 to 5	10 to 50	–	–	–	O=C1c2c(n(Cc3ccc(F)cc3)c3c(Cl)cccc3c2=O)-c2cccn21 [Compound 481a, 5-Chloro-4-(4-fluorobenzyl)-9H-pyrrolizino[1,2-b]quinoline-9,10(4H)-dione]	< 0.05	0.05 to 5	0.05 to 5	0.05 to 5	0.05 to 5	0.05 to 5	–	–	–	–	–	–
–	1 to 10	–	–	0.05 to 5	Cc1cccc2c(O)c3c(nc12)C(=O)n1cccc1-3 [Compound 779b, 11-hydroxy-7-methyl-5H-pyrrolizino[2,1-b]quinolin-5-one]	–	–	–	–	–	–	0.05 to 5	0.05 to 5	0.05 to 5	0.05 to 5	0.05 to 5	0.05 to 5
0.05 to 5	1 to 10	–	–	–	O=C1c2c(nc3cc(Cl)ccc3c2OCc2ccc(F)cc2)-c2cccn21 [Compound 502b, 6-chloro-9-((4-fluorobenzyl)oxy)-10H-pyrrolizino[1,2-b]quinolin-10-one]	0.05 to 5	0.05 to 5	0.05 to 5	0.05 to 5	0.05 to 5	0.05 to 5	–	–	–	–	–	–
< 0.05	1 to 10	–	–	–	O=C1c2c(n(C(=O)c3ccco3)c3cc(N4CCNCC4)c(F)cc3c2=O)-c2cccn21 [Compound 343a, 7-Fluoro-4-(furan-2-carbonyl)-6-(piperazin-1-yl)-9H-pyrrolizino[1,2-b]quinoline-9,10(4H)-dione]	0.05 to 5	0.05 to 5	0.05 to 5	0.05 to 5	0.05 to 5	0.05 to 5	–	–	–	–	–	–
0.05 to 5	1 to 10	–	–	–	O=C1c2c(nc3c(C(F)(F)F)cccc3c2OCc2cccc(Cl)c2)-c2cccn21 [Compound 455b, 9-((3-chlorobenzyl)oxy)-5-(trifluoromethyl)-10H-pyrrolizino[1,2-b]quinolin-10-one]	0.05 to 5	5 to 20	0.05 to 5	0.05 to 5	0.05 to 5	0.05 to 5	–	–	–	–	–	–
0.05 to 5	10 to 50	–	–	–	O=C1c2cc(F)ccc2N(c2ccc(Cl)cc2)C2c3cccn3C(=O)C12 (centres unmarked) [Compound 133a, 4-(4-Chlorophenyl)-7-fluoro-3b,9a-dihydro-9H-pyrrolizino[1,2-b]quinoline-9,10(4H)-dione]	0.05 to 5	0.05 to 5	0.05 to 5	0.05 to 5	5 to 20	0.05 to 5	–	–	–	–	–	–

SMILES	IC50 [3, 11] [mM]	IC50 ([7]; Mus musculus, RAW264.7, 24 h) [µM]	IC50 ([3]; human fibrosarcoma cells HT-1080, CCK-8, 48 hours) [mM]	IC50 ([7]; 24 hours) [µM]	IC50 [3, 15] [mM]	IC50 (BHK-21 cells; [8]) [mM]	IC50 [1, 9] [mM]	IC50 [2, 10] [mM]	IC50 [4, 12] [mM]	IC50 [5, 13] [mM]	IC50 [6, 14] [mM]	IC50 (BHK-21 cells; 48 h, CCK-8) [mM]	IC50 ([1]; HFL1 cells, 48 h, CCK-8) [mM]	IC50 ([2]; LX-2, 48 h, LX-2 cells, CCK-8) [mM]	IC50 [4, 16] [mM]	IC50 [5, 17] [mM]	IC50 ([6]; RAT-iCell-C002 cells, CCK-8) [mM]
CCn1c2c(c(=O)c3cc(F)c(N4CCNCC4)cc31)C(=O)n1cccc1-2 [Compound 329a, 4-Ethyl-7-fluoro-6-(piperazin-1-yl)-9H-pyrrolizino[1,2-b]quinoline-9,10(4H)-dione]	0.05 to 5	1 to 10	–	–	–	0.05 to 5	0.05 to 5	0.05 to 5	0.05 to 5	0.05 to 5	5 to 20	–	–	–	–	–	–
O=C1c2nc3ccccc3c(OCCCCN3CCCCC3)c2-c2cccn21 [Compound 788b, 11-(4-(piperidin-1-yl)butoxy)-5H-pyrrolizino[2,1-b]quinolin-5-one]	–	1 to 10	–	–	0.05 to 5	–	–	–	–	–	–	0.05 to 5	0.05 to 5	0.05 to 5	0.05 to 5	0.05 to 5	0.05 to 5
